The subject of assay [1] is Mycobacterium tuberculosis. Description: Antimycobacterial activity against drug resistant Mycobacterium tuberculosis measured after 8 to 9 days. It counts as functional. Particulars: time 8-9 day.
Assay [2] concerns Mycobacterium tuberculosis. The experiment in a line: Antimycobacterial activity against multi drug resistant Mycobacterium tuberculosis measured after 8 to 9 days. It counts as functional. Particulars: time 8-9 day.

In brackets after ≈: the same amount, converted by molar mass.

What is called MIC is the lowest concentration that inhibits growth of the organism. High values mean a need for much substance, low ones inhibition by little substance.

Consider `Clc1ccc(-c2nnc3sc(COc4ccc(Br)cc4)nn23)cc1`, for which the MIC in assay [1] came to 0.5 µg/mL (≈ 1.19 µM); in assay [2], 4 µg/mL (≈ 9.49 µM).
For `Brc1ccc(OCc2nn3c(-c4ccc(Br)cc4)nnc3s2)cc1`, the MIC in assay [1] was found to be 0.5 µg/mL (≈ 1.07 µM); in assay [2] it was 4 µg/mL (≈ 8.58 µM).
In turn, `O=[N+]([O-])c1ccc(C2=Nn3c(nnc3-c3ccc(Br)cc3)CC2)cc1` came in with an MIC in assay [1] of 0.25 µg/mL (≈ 0.628 µM).
Take `O=[N+]([O-])c1ccc(C2=Nn3c(nnc3-c3ccnc(F)c3)CC2)cc1`: the MIC in assay [1] and in assay [2] was 0.25 µg/mL (≈ 0.739 µM) each time.
As for `O=[N+]([O-])c1ncn(CCCCNS(=O)(=O)c2scc(Cl)c2Cl)n1`, in assay [2], the lowest concentration to inhibit growth (MIC) was 0.25 µg/mL (≈ 0.625 µM).

(Values after ChEMBL document CHEMBL5244255, “An insight on medicinal attributes of 1,2,4-triazoles” (Eur J Med Chem, 2020).)
